# Read-outs that look alike come from different tables or passages of the source.
# Target: T1, wild-type mouse TMEM16A (Mus musculus, UniProt Q8BHY3)
# T1 construct: expressed in transfected cells; host or cells: HEK293T
# T1 sequence (Q8BHY3 1-960): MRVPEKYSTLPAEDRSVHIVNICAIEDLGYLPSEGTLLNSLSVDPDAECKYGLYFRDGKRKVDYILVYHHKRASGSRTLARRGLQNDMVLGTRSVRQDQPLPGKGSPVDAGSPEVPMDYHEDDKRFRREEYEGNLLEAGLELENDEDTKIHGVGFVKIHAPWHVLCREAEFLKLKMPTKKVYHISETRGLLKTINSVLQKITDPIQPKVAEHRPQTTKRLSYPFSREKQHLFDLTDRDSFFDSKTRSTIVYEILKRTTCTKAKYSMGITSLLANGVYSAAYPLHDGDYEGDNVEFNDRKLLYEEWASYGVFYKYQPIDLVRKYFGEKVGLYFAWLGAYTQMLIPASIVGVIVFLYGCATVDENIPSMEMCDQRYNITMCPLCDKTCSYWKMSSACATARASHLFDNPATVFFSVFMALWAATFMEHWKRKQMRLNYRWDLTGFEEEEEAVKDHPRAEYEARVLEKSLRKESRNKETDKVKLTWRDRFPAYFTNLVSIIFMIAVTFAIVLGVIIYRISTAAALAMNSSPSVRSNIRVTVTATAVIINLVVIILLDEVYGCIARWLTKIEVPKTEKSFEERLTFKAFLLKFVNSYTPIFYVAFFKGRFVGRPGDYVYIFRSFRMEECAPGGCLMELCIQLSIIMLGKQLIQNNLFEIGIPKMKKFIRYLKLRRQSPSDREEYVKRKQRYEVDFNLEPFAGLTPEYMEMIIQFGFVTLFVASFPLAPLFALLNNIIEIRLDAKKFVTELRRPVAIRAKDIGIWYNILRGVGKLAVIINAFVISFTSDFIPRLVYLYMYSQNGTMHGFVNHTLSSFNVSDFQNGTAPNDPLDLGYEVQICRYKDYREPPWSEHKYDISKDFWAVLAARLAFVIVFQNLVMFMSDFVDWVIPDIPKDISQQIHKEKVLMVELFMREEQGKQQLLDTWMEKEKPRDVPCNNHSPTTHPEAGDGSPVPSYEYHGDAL
# Test: Inside-out patch recording of 1PBC block, wild-type TMEM16A
# Assay type: cell-based
# Conditions: for remaining activity at 3 µM / remaining activity at 10 µM: read-out: I/Imax
# Protocol: HEK293T cells (ATCC CRL-1573) were maintained in Dulbecco’s modified Eagle’s medium (DMEM; Sigma-Aldrich) supplemented with 10 U ml^−1 penicillin, 0.1 mg ml^−1 streptomycin (Sigma-Aldrich), 2 mM L-glutamine (Sigma-Aldrich), and 10% FBS (Sigma-Aldrich) in a humidified atmosphere containing 5% CO2 at 37 °C. HEK293S GnTI^− cells (ATCC CRL-3022) were maintained in HyClone HyCell TransFx-H medium (GE Healthcare) supplemented with 10 U ml^−1 penicillin, 0.1 mg ml^−1 streptomycin, 4 mM L-glutamine, 0.15% poloxamer 188 (Sigma-Aldrich), and 1% FBS in an atmosphere containing 5% CO2 at 185 rpm at 37 °C. The ac splice variant of mouse TMEM16A (UniProt ID: Q8BHY3), mouse TMEM16B (UniProt ID: Q8CFW1), or mouse TMEM16F (UniProt ID: Q6P9J9) bearing a 3C cleavage site, a Venus YFP, a Myc tag, and a Streptavidin-binding peptide (SBP) downstream of the open reading frame in a modified pcDNA3.1 vector (Invitrogen) were used as described previously[21],[31]. Mutations were introduced using a modified QuikChange method[58] and were verified by sequencing.
# HEK293T cells were transfected with 3–4 μg DNA per 6 cm Petri dish using the calcium phosphate co-precipitation method and were used within 24–96 h after transfection. Recordings were performed on inside-out patches excised from HEK293T cells expressing the construct of interest. Patch pipettes were pulled from borosilicate glass capillaries (O.D. 1.5 mm, I.D. 0.86 mm, Sutter Instrument) and were fire-polished with a microforge (Narishige) before use. Pipette resistance was typically 3–8 MΩ when filled with the recording solutions detailed below. Seal resistance was typically 4 GΩ or higher. Voltage-clamp recordings were made using Axopatch 200B, Digidata 1550, and Clampex 10.7 (Molecular Devices). Analog signals were filtered with the in-built 4-pole Bessel filter at 10 kHz and were digitized at 20 kHz. Solution exchange was achieved using a gravity-fed system through a theta glass pipette mounted on an ultra-fast piezo-driven stepper (Siskiyou). […] All recordings were performed at 20 °C.
# A symmetrical ionic condition was used throughout. Stock solution with Ca^2+-EGTA contained 150 mM NaCl, 5.99 mM Ca(OH)2, 5 mM EGTA, and 10 mM HEPES at pH 7.40. Stock solution with EGTA contained 150 mM NaCl, 5 mM EGTA, and 10 mM HEPES at pH 7.40. Free Ca^2+ concentrations were adjusted by mixing the stock solutions at the required ratios calculated using the WEBMAXC program (http://web.stanford.edu/~cpatton/webmaxcS.htm). Patch pipettes were filled with the stock solution with Ca^2+-EGTA, which has a free Ca^2+ concentration of 1 mM. 1PBC (ChemBridge) stock was reconstituted in anhydrous DMSO (Sigma-Aldrich) at 100 mM and stored at −20 °C. Working solutions with 1PBC were prepared by serial dilution. Unless otherwise stated, experiments were performed at a saturating Ca^2+ concentration as shown in Supplementary Table 1 and the primary data were corrected for current rundown as described previously[21],[25].
# Concentration-response relations, obtained from the ratio of the I-V plots before and after the application of the blocker, were fitted to the Hill equation,1 I/Imax=1/1+IC50/[blocker]^h where I/Imax is the normalized current responses, IC50 defines the concentration at which inhibition is at its half-maximum, and h is the Hill coefficient.
compound,measurement,setting,value
N#Cc1c(C(F)(F)F)cc(O)n2c1nc1ccccc12 [1PBC],Steady-state current (normalized),"3 µM 1PBC, 60 mV, 2 µM Ca2+",0.2233
same,remaining activity at 3 µM,"3 µM 1PBC, 60 mV, 2 µM Ca2+",40.5%
same,Steady-state current (normalized),"3 µM 1PBC, 80 mV, 2 µM Ca2+",0.2697
same,remaining activity at 3 µM,"3 µM 1PBC, 80 mV, 2 µM Ca2+",38.1%
same,Steady-state current (normalized),"3 µM 1PBC, 100 mV, 2 µM Ca2+",0.3173
same,remaining activity at 3 µM,"3 µM 1PBC, 100 mV, 2 µM Ca2+",37.3%
same,Steady-state current (normalized),"3 µM 1PBC, 120 mV, 2 µM Ca2+",0.3753
same,remaining activity at 3 µM,"3 µM 1PBC, 120 mV, 2 µM Ca2+",38.6%
same,Steady-state current (normalized),"3 µM 1PBC, 140 mV, 2 µM Ca2+",0.4543
same,remaining activity at 3 µM,"3 µM 1PBC, 140 mV, 2 µM Ca2+",41.8%
same,Steady-state current (normalized),"3 µM 1PBC, -20 mV, 2 µM Ca2+",-0.1133
same,remaining activity at 3 µM,"3 µM 1PBC, -20 mV, 2 µM Ca2+",58.9%
same,Steady-state current (normalized),"3 µM 1PBC, -40 mV, 2 µM Ca2+",-0.2482
same,remaining activity at 3 µM,"3 µM 1PBC, -40 mV, 2 µM Ca2+",63.9%
same,Steady-state current (normalized),"3 µM 1PBC, -60 mV, 2 µM Ca2+",-0.3977
same,remaining activity at 3 µM,"3 µM 1PBC, -60 mV, 2 µM Ca2+",68.6%
same,Steady-state current (normalized),"3 µM 1PBC, -80 mV, 2 µM Ca2+",-0.557
same,remaining activity at 3 µM,"3 µM 1PBC, -80 mV, 2 µM Ca2+",72.6%
same,Steady-state current (normalized),"3 µM 1PBC, -100 mV, 2 µM Ca2+",-0.718
same,remaining activity at 3 µM,"3 µM 1PBC, -100 mV, 2 µM Ca2+",75.6%
same,Steady-state current (normalized),"3 µM 1PBC, -120 mV, 2 µM Ca2+",-0.8735
same,remaining activity at 3 µM,"3 µM 1PBC, -120 mV, 2 µM Ca2+",78.1%
same,Steady-state current (normalized),"3 µM 1PBC, -140 mV, 2 µM Ca2+",-1.031
same,remaining activity at 3 µM,"3 µM 1PBC, -140 mV, 2 µM Ca2+",80.3%
same,Steady-state current (normalized),"10 µM 1PBC, 0 mV, 2 µM Ca2+",0.0007397
same,remaining activity at 10 µM,"10 µM 1PBC, 0 mV, 2 µM Ca2+",30.3%
same,I/Imax scaled to open probability,"10 µM 1PBC, 400 nM Ca2+, 80 mV",0.1226
same,I/Imax scaled to open probability,"10 µM 1PBC, 800 nM Ca2+, 80 mV",0.1094
same,I/Imax scaled to open probability,"10 µM 1PBC, 2 µM Ca2+, 80 mV",0.1474
same,Steady-state current (normalized),"10 µM 1PBC, 20 mV, 2 µM Ca2+",0.04925
same,remaining activity at 10 µM,"10 µM 1PBC, 20 mV, 2 µM Ca2+",25.3%
same,Steady-state current (normalized),"10 µM 1PBC, 40 mV, 2 µM Ca2+",0.08188
same,remaining activity at 10 µM,"10 µM 1PBC, 40 mV, 2 µM Ca2+",21.7%
same,Steady-state current (normalized),"10 µM 1PBC, 60 mV, 2 µM Ca2+",0.1024
same,remaining activity at 10 µM,"10 µM 1PBC, 60 mV, 2 µM Ca2+",18.6%
same,Steady-state current (normalized),"10 µM 1PBC, 80 mV, 2 µM Ca2+",0.1202
same,remaining activity at 10 µM,"10 µM 1PBC, 80 mV, 2 µM Ca2+",17%
same,Steady-state current (normalized),"10 µM 1PBC, 100 mV, 2 µM Ca2+",0.1383
same,remaining activity at 10 µM,"10 µM 1PBC, 100 mV, 2 µM Ca2+",16.3%
same,Steady-state current (normalized),"10 µM 1PBC, 120 mV, 2 µM Ca2+",0.1588
same,remaining activity at 10 µM,"10 µM 1PBC, 120 mV, 2 µM Ca2+",16.3%
same,Steady-state current (normalized),"10 µM 1PBC, 140 mV, 2 µM Ca2+",0.1862
same,remaining activity at 10 µM,"10 µM 1PBC, 140 mV, 2 µM Ca2+",17.1%
same,Steady-state current (normalized),"10 µM 1PBC, -20 mV, 2 µM Ca2+",-0.06795
same,remaining activity at 10 µM,"10 µM 1PBC, -20 mV, 2 µM Ca2+",35.3%
same,Steady-state current (normalized),"10 µM 1PBC, -40 mV, 2 µM Ca2+",-0.1586
same,remaining activity at 10 µM,"10 µM 1PBC, -40 mV, 2 µM Ca2+",40.9%

# From publication PMC9120017, “Inhibition mechanism of the chloride channel TMEM16A by the pore blocker 1PBC” (Nature Communications, 2022)
